Read-outs that look alike come from different tables or passages of the source. One block for each molecule: values may come before it.
Assays:
BAW (Spodoptera exigua) = assay: Bioassays on Beet Armyworm (BAW), 128-well diet tray assay; type: in vivo; details: Spodoptera exigua, 168 h, read-out: BAW Rating
Procedure, shortened: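 Diet surface dosed at 50 μg/cm^2 (acetone-water 90:10 vehicle), dried, then infested with second-instar larvae, one to five per well. After five to seven days at 25° C. under 14:10 light-dark, mortality per well was scored and averaged over eight wells.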

CL (Trichoplusia ni) = assay: Bioassays on Cabbage Looper (CL), 128-well diet tray assay; type: in vivo; details: 168 h, percent mortality, second instar larvae, 50 μg/cm^2 on artificial diet, five to seven days, 25° C., read-out: CL Rating
Description: Bioassays on Beet Armyworm (“BAW”) and Corn Earworm (“CEW”) and Cabbage Looper (“CL”)
Certain molecules disclosed in this document were tested against BAW and CEW and CL using procedures described in the following examples. In the reporting of the results, the “BAW & CEW & CL Rating Table” was used (See Table Section).
Bioassays on CL (Trichoplusia ni)
Bioassays on CL were conducted using a 128-well diet tray assay. One to five second instar CL larvae were placed in each well (3 mL) of the diet tray that had been previously filled with 1 mL of artificial diet to which 50 μg/cm^2 of the test compound (dissolved in 50 μL of 90:10 acetone-water mixture) had been applied (to each of eight wells) and then allowed to dry. Trays were covered with a clear self-adhesive cover, and held at 25° C., 14:10 light-dark for five to seven days. Percent mortality was recorded for the larvae in each well; activity in the eight wells was then averaged. The results are indicated in the table entitled “Table 3A: Assay Results” (See Table Section).

GPA (Myzus persicae) = assay: Bioassays on Green Peach Aphid (GPA), foliar spray on cabbage seedlings; type: in vivo; details: 72 h, corrected % control (Abbott), 200 ppm spray on cabbage seedlings, three days, read-out: GPA Rating
Procedure, shortened: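 Activity given as Abbott-corrected % control, from live aphid counts versus solvent-only plants three days after treatment at about 25° C. Compounds were applied at 200 ppm (acetone/MeOH diluted in 0.025% aqueous Tween 20) as a runoff spray on aphid-infested cabbage seedlings, four replicates each.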

CEW (Helicoverpa zea) = assay: Bioassays on Corn Earworm (CEW), 128-well diet tray assay; type: in vivo; details: Helicoverpa zea, 168 h; percent mortality, second instar larvae, 50 μg/cm^2 on artificial diet, five to seven days, 25° C.; read-out: CEW Rating
Procedure, shortened: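 Percent larval mortality, averaged across eight wells, read after five to seven days at 25 °C under 14:10 light-dark. Each well held one to five second-instar larvae on diet surface-dosed at 50 μg/cm^2 (compound applied in acetone-water 90:10, then dried).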

[1] = percent mortality, second instar larvae, 50 μg/cm^2 on artificial diet, five to seven days, 25° C.

Compound: CN(NC(=O)c1ccc(/C=C/C(c2cc(Cl)c(Cl)c(Cl)c2)C(F)(F)F)cc1Br)C(=O)NCC(F)(F)F (stereo not drawn) [FA1]
pest or weed control at 50 µg/cm2 (BAW (Spodoptera exigua); [1]): 50 to 100%
pest or weed control at 50 µg/cm2 (CL (Trichoplusia ni)): 50 to 100%

Compound: CN(NC(=O)c1ccc(/C=C/C(c2cc(Cl)c(Br)c(Cl)c2)C(F)(F)F)cc1C(F)(F)F)C(=O)NCC(F)(F)F (stereo not drawn) [FA6]
pest or weed control at 50 µg/cm2 (BAW (Spodoptera exigua); [1]): 50 to 100%
pest or weed control at 50 µg/cm2 (CL (Trichoplusia ni)): 50 to 100%

Compound: CN(NC(=O)c1ccc(/C=C/C(c2cc(Br)cc(Br)c2)C(F)(F)F)cc1C(F)(F)F)C(=O)NCC(F)(F)F (stereo not drawn) [FA4]
pest or weed control at 50 µg/cm2 (BAW (Spodoptera exigua); [1]): 50 to 100%
pest or weed control at 50 µg/cm2 (CL (Trichoplusia ni)): 50 to 100%

Compound: CCNC(=O)N(C)NC(=O)c1ccc(/C=C/C(c2cc(Cl)c(Cl)c(Cl)c2)C(F)(F)F)cc1Br (stereo not drawn) [Compound F1, (E)-2-(2-Bromo-4-(4,4,4-trifluoro-3-(3,4,5-trichlorophenyl)but-1-en-1-yl)benzoyl)-N-ethyl-1-methylhydrazinecarboxamide]
pest or weed control at 50 µg/cm2 (BAW (Spodoptera exigua); [1]): 50 to 100%
pest or weed control at 50 µg/cm2 (CL (Trichoplusia ni)): 50 to 100%

Compound: CN(NC(=O)c1ccc(/C=C/C(c2cc(Cl)c(Cl)c(Cl)c2)C(F)(F)F)cc1C(F)(F)F)C(=O)NCC(F)F (stereo not drawn) [FA8]
pest or weed control at 50 µg/cm2 (BAW (Spodoptera exigua); [1]): 50 to 100%
pest or weed control at 50 µg/cm2 (CL (Trichoplusia ni)): 50 to 100%

Compound: CN(NC(=O)c1ccc(/C=C/C(c2cc(Cl)c(F)c(Cl)c2)C(F)(F)F)cc1C(F)(F)F)C(=O)NCC(F)(F)F (stereo not drawn) [FA7]
pest or weed control at 50 µg/cm2 (BAW (Spodoptera exigua); [1]): 50 to 100%
pest or weed control at 50 µg/cm2 (CL (Trichoplusia ni)): 50 to 100%

Compound: O=C(NCC(F)(F)F)NNC(=O)c1ccc(/C=C/C(c2cc(Cl)c(Cl)c(Cl)c2)C(F)(F)F)cc1Br (stereo not drawn) [Compound F7, (E)-2-(2-Bromo-4-(4,4,4-trifluoro-3-(3,4,5-trichlorophenyl)but-1-en-1-yl)benzoyl)-N-(2,2,2-trifluoroethyl)hydrazinecarboxamide]
pest or weed control at 50 µg/cm2 (BAW (Spodoptera exigua); [1]): 50 to 100%
pest or weed control at 50 µg/cm2 (CL (Trichoplusia ni)): 50 to 100%

melting point: 110 to 112 °C
Compound: NC(=O)c1ccc(/C=C/C(c2cc(Cl)cc(Cl)c2)C(F)(F)F)cc1 (stereo not drawn) [AC2]

Compound: CN(NC(=O)c1ccc(/C=C/C(c2cc(Br)c(Cl)c(Br)c2)C(F)(F)F)cc1C(F)(F)F)C(=O)NCC(F)(F)F (stereo not drawn) [FA5]
pest or weed control at 50 µg/cm2 (BAW (Spodoptera exigua); [1]): 50 to 100%
pest or weed control at 50 µg/cm2 (CL (Trichoplusia ni)): 50 to 100%

Compound: CN(NC(=O)c1ccc(/C=C/C(c2cc(Cl)c(Cl)c(Cl)c2)C(F)(F)F)cc1C(F)(F)F)C(=O)NCC(F)(F)F (stereo not drawn) [FA2]
pest or weed control at 50 µg/cm2 (BAW (Spodoptera exigua); [1]): 50 to 100%
pest or weed control at 50 µg/cm2 (CL (Trichoplusia ni)): 50 to 100%

Compound: O=C(C1CC1)N(Cc1ccccn1)Cc1ccc(/C=C/C(c2cc(Cl)c(Cl)c(Cl)c2)C(F)(F)F)cc1C(F)(F)F (stereo not drawn) [CC29, (E)-N-(Pyridin-2-ylmethyl)-N-(4-(4,4,4-trifluoro-3-(3,4,5-trichlorophenyl)but-1-enyl)-2-(trifluoromethyl)benzyl)cyclopropanecarboxamide]
pest or weed control at 50 µg/cm2 (BAW (Spodoptera exigua)): 50 to 100%
pest or weed control at 200 ppm (GPA (Myzus persicae)): 0 to 80%
pest or weed control at 50 µg/cm2 (CEW (Helicoverpa zea)): 50 to 100%

Compound: CN(NC(=O)c1ccc(/C=C/C(c2cc(Cl)c(Cl)c(Cl)c2)C(F)(F)F)cc1C(F)(F)F)C(=O)NCCC(F)(F)F (stereo not drawn) [FA9]
pest or weed control at 50 µg/cm2 (BAW (Spodoptera exigua); [1]): 50 to 100%
pest or weed control at 50 µg/cm2 (CL (Trichoplusia ni)): 50 to 100%

Compound: O=C(NCc1ccc(/C=C/C(c2cc(Cl)c(Cl)c(Cl)c2)C(F)(F)F)cc1Cl)C1CC1 (stereo not drawn) [CC11]
pest or weed control at 50 µg/cm2 (BAW (Spodoptera exigua)): 50 to 100%
pest or weed control at 200 ppm (GPA (Myzus persicae)): 0 to 80%
pest or weed control at 50 µg/cm2 (CEW (Helicoverpa zea)): 50 to 100%

Compound: O=C(CC(F)(F)F)NC1CCc2cc(/C=C/C(c3cc(Cl)c(F)c(Cl)c3)C(F)(F)F)ccc21 (stereo not drawn) [BC8]
pest or weed control at 50 µg/cm2 (BAW (Spodoptera exigua)): 50 to 100%
pest or weed control at 200 ppm (GPA (Myzus persicae)): 0 to 80%
pest or weed control at 50 µg/cm2 (CEW (Helicoverpa zea)): 50 to 100%
